According to ChEMBL document CHEMBL4340530, “Peptide-based covalent inhibitors of MALT1 paracaspase” (Bioorg Med Chem Lett, 2019):
The source made the active and inactive calls. The rule behind the calls is not given here. Numbered stars: 1 amine (or outer) side, 2 acyl side, 3 side chain; on linkers, the order of the positions; unused ones are H or OH. Square brackets hold non-standard residues; d marks the D form. Peptide text beside a SMILES is read from it. * marks the point of attachment. cisHyp = O=C(O)[C@@H]1C[C@H](O)CN1; NMeR = CN[C@@H](CCCNC(=N)N)C(=O)O; Hyp = O=C(O)[C@@H]1C[C@@H](O)CN1; Chg = N[C@H](C(=O)O)C1CCCCC1; Phg = N[C@H](C(=O)O)c1ccccc1; Tle = CC(C)(C)[C@H](N)C(=O)O; NMeV = CN[C@H](C(=O)O)C(C)C; αMeP = C[C@@]1(C(=O)O)CCCN1; Pip = O=C(O)[C@@H]1CCCCN1; Ac6c = NC1(C(=O)O)CCCCC1; Ac5c = NC1(C(=O)O)CCCC1; Cbz = O=C(OCc1ccccc1)*; CO = O=C([*:1])[*:2]; Bz = O=C(c1ccccc1)*; NHPh = c1ccc(N*)cc1; CH2F = FC*

Columns and labels:
OCI-Ly3 = assay: Antiproliferative activity against human OCI-LY3 cells assessed as growth inhibition treated every 48 hrs measured after 96 hrs by CellTiter-Glo assay; format: functional
[1] = molecular target: T1, Mucosa-associated lymphoid tissue lymphoma translocation protein 1 (Homo sapiens, UniProt Q9UDY8); assay: Inhibition of recombinant LZ-fused MALT1 (340 to 789 residues) (unknown origin) using Ac-LRSR-AMC as substrate by fluorescence assay
T1 sequence (Q9UDY8 whole entry): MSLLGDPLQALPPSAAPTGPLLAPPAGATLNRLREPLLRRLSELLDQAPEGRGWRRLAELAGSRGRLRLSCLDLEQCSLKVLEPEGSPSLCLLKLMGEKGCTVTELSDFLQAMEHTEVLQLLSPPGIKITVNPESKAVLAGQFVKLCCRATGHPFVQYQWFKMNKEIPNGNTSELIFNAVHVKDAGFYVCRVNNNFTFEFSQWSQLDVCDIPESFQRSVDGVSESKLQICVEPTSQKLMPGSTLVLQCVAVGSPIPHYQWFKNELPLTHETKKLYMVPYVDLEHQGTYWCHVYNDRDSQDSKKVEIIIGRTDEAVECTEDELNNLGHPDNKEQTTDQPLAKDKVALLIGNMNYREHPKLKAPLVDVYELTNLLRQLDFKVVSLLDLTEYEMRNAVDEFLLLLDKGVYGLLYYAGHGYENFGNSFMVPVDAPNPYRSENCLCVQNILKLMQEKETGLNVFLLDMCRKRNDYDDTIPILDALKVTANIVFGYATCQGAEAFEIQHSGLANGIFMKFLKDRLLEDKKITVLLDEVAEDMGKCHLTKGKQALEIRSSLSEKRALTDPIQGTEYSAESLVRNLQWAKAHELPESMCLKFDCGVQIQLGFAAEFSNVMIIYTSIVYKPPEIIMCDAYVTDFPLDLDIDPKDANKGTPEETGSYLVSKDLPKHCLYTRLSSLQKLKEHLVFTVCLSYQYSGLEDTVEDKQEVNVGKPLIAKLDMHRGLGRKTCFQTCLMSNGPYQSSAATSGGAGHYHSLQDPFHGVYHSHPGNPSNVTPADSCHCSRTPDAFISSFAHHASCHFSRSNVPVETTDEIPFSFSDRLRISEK

OCI-Ly1 = assay: Antiproliferative activity against human OCI-LY1 cells up to 20 uM; format: functional, cell-based
[2] = molecular target: T2, Mucosa-associated lymphoid tissue lymphoma translocation protein 1 (Homo sapiens) (UniProt Q9UDY8); assay: Inhibition of MALT1 (unknown origin) expressed in PMA/IO-stimulated human Raji Glosensor cells by reporter gene assay; format: cell-based
T2 sequence (whole entry): T1 sequence (Q9UDY8 whole entry)

SMILES | GI50 (OCI-Ly3) [µM] | further results
CC(C)[C@H](NC(=O)OCc1ccccc1)C(=O)N[C@@H](CO)C(=O)N[C@@H](CCCNC(=N)N)C(=O)CF | 0.29 | –
CC(C)[C@H](NC(=O)Nc1ccc(Cl)cc1)C(=O)N1CCC[C@H]1C(=O)N[C@@H](CCCNC(=N)N)C(=O)CF | 0.78 | –
CC(C)[C@H](NC(=O)OCc1ccccc1)C(=O)N1CCC[C@H]1C(=O)N(C)[C@@H](CCCNC(=N)N)C(=O)CF (Cbz-Val-Pro-[NMeR]-CH2F) | – | Ki [1]: > 5 µM; Activity (OCI-Ly1): inactive
CC(C)[C@H](NC(=O)c1ccccc1Br)C(=O)N1CCC[C@H]1C(=O)N[C@@H](CCCNC(=N)N)C(=O)CF | 4.24 | –
CC(C)c1ccc(C(=O)N[C@H](C(=O)N2CCC[C@H]2C(=O)N[C@@H](CCCNC(=N)N)C(=O)CF)C(C)C)cc1 | 0.27 | –
N=C(N)NCCC[C@H](NC(=O)[C@@H]1C[C@@H](O)CN1C(=O)[C@@H](NC(=O)c1ccc(Br)cc1)C1CCCCC1)C(=O)CF | 0.06 | –
CC(C)[C@H](NC(=O)OCc1ccccc1)C(=O)N1CCC[C@@]1(C)C(=O)N[C@@H](CCCNC(=N)N)C(=O)CF (Cbz-Val-[αMeP]-Arg-CH2F) | 10.5 | –
CC(C)[C@H](NC(=O)Nc1ccccc1)C(=O)N1CCC[C@H]1C(=O)N[C@@H](CCCNC(=N)N)C(=O)CF ({NHPh-CO}-Val-Pro-Arg-CH2F) | 1.52 | –
CC(C)C[C@H](NC(=O)OCc1ccccc1)C(=O)N[C@H](C(=O)N1CCC[C@H]1C(=O)N[C@@H](CCCNC(=N)N)C(=O)CF)C(C)C (Cbz-LVPR-CH2F) | 1.05 | Ki [1]: 0.09 µM; Activity (OCI-Ly1): inactive
COc1ccc(C(=O)N[C@H](C(=O)N2CCC[C@H]2C(=O)N[C@@H](CCCNC(=N)N)C(=O)CF)C(C)C)cc1 | 1.67 | –
CC(C)[C@H](NC(=O)c1ccc(C(F)(F)F)cc1)C(=O)N1CCC[C@H]1C(=O)N[C@@H](CCCNC(=N)N)C(=O)CF | 0.12 | –
N=C(N)NCCC[C@H](NC(=O)[C@H](CO)NC(=O)[C@@H](NC(=O)c1ccc(Br)cc1)C1CCCCC1)C(=O)CF | 0.24 | –
CC(C)[C@H](NC(=O)c1ccc(Br)cc1)C(=O)N1CC[C@H]1C(=O)N[C@@H](CCCNC(=N)N)C(=O)CF | 0.77 | –
CC(C)[C@H](NC(=O)c1ccc(Br)cc1)C(=O)N1CCC[C@@H]1C(=O)N[C@@H](CCCNC(=N)N)C(=O)CF | > 20 | IC50 [2]: 17.5 µM
CC(C)[C@H](NC(=O)c1ccc(Br)cc1)C(=O)N1C[C@H](O)C[C@H]1C(=O)N[C@@H](CCCNC(=N)N)C(=O)CF | 0.07 | –
CC(C)[C@H](NC(=O)c1ccc(C#N)cc1)C(=O)N1CCC[C@H]1C(=O)N[C@@H](CCCNC(=N)N)C(=O)CF | 6.66 | –
CC(C)[C@H](NC(=O)c1ccc(Br)cc1)C(=O)N1COC[C@H]1C(=O)N[C@@H](CCCNC(=N)N)C(=O)CF | 0.12 | –
N=C(N)NCCC[C@H](NC(=O)[C@@H]1CCCN1C(=O)[C@@H](NC(=O)c1ccc(Br)cc1)C1CCCCC1)C(=O)CF | 0.13 | –
CN[C@H](C(=O)N1CCC[C@H]1C(=O)N[C@@H](CCCNC(=N)N)C(=O)CF)C(C)C (H-[NMeV]-Pro-Arg-CH2F) | > 20 | Ki [1]: > 0.2 µM; Activity (OCI-Ly1): inactive
CC(C)[C@H](NC(=O)c1ccc(Br)cc1)C(=O)N1CCOC[C@H]1C(=O)N[C@@H](CCCNC(=N)N)C(=O)CF | 0.46 | –
CC(C)[C@H](NC(=O)c1cccc(Br)c1)C(=O)N1CCC[C@H]1C(=O)N[C@@H](CCCNC(=N)N)C(=O)CF | 0.53 | –
CC(C)[C@H](NC(=O)OCc1ccccc1)C(=O)N[C@@H](CCCNC(=N)N)C(=O)N1CCC[C@H]1C(=O)N[C@@H](CCCNC(=N)N)C(=O)CF | 8.22 | Ki [1]: 0.14 µM; Activity (OCI-Ly1): inactive
CC(C)[C@H](NC(=O)c1ccc(Cl)cc1)C(=O)N1CCC[C@H]1C(=O)N[C@@H](CCCNC(=N)N)C(=O)CF | 1.24 | –
CC(C)[C@H](NC(=O)C1CCCCC1)C(=O)N1CCC[C@H]1C(=O)N[C@@H](CCCNC(=N)N)C(=O)CF | 0.94 | –

More lines, main results first:

GI50 (OCI-Ly3) [µM] | SMILES | further results
1.44 | CC(C)(C)[C@H](NC(=O)OCc1ccccc1)C(=O)N1CCC[C@H]1C(=O)N[C@@H](CCCNC(=N)N)C(=O)CF (Cbz-[Tle]-Pro-Arg-CH2F) | –
> 20 | CC(C)[C@@H](C(=O)N1CCC[C@H]1C(=O)N[C@@H](CCCNC(=N)N)C(=O)CF)N(C)C(=O)OCc1ccccc1 (Cbz-[NMeV]-Pro-Arg-CH2F) | Activity (OCI-Ly1): inactive
1.45 | N=C(N)NCCC[C@H](NC(=O)[C@@H]1CCCN1C(=O)[C@@H](NC(=O)OCc1ccccc1)C1CCCCC1)C(=O)CF (Cbz-[Chg]-Pro-Arg-CH2F) | –
0.29 | CC(C)[C@H](NC(=O)OCc1ccccc1)C(=O)N1C[C@H](O)C[C@H]1C(=O)N[C@@H](CCCNC(=N)N)C(=O)CF (Cbz-Val-[Hyp]-Arg-CH2F) | IC50 [2]: 0.209 µM
8.05 | N=C(N)NCCC[C@H](NC(=O)[C@@H]1CCCN1C(=O)[C@@H](NC(=O)OCc1ccccc1)c1ccccc1)C(=O)CF (Cbz-[Phg]-Pro-Arg-CH2F) | –
2.44 | CC[C@H](C)[C@H](NC(=O)OCc1ccccc1)C(=O)N1CCC[C@H]1C(=O)N[C@@H](CCCNC(=N)N)C(=O)CF (Cbz-Ile-Pro-Arg-CH2F) | –
0.73 | CC(C)[C@H](NC(=O)OCc1ccccc1)C(=O)N1CCCC[C@H]1C(=O)N[C@@H](CCCNC(=N)N)C(=O)CF (Cbz-Val-[Pip]-Arg-CH2F) | –
0.66 | CC(C)[C@H](NC(=O)c1ccccc1)C(=O)N1CCC[C@H]1C(=O)N[C@@H](CCCNC(=N)N)C(=O)CF (Bz-Val-Pro-Arg-CH2F) | –
2.2 | N=C(N)NCCC[C@H](NC(=O)[C@@H]1CCCN1C(=O)[C@H](Cc1ccccc1)NC(=O)OCc1ccccc1)C(=O)CF | –
8.52 | CC(C)[C@H](NC(=O)OCc1ccccc1)C(=O)N1CCC[C@H]1C(=O)N[C@@H](CCCNC(=N)N)C(=O)CF (Cbz-Val-Pro-Arg-CH2F) | Activity (OCI-Ly1): inactive
4.31 | N=C(N)NCCC[C@H](NC(=O)[C@@H]1CCCN1C(=O)C1(NC(=O)OCc2ccccc2)CCCC1)C(=O)CF (Cbz-[Ac5c]-Pro-Arg-CH2F) | –
1.07 | CC(C)[C@H](NC(=O)OCc1ccccc1)C(=O)N1C[C@@H](O)C[C@H]1C(=O)N[C@@H](CCCNC(=N)N)C(=O)CF (Cbz-Val-[cisHyp]-Arg-CH2F) | IC50 [2]: 0.239 µM
6.23 | N=C(N)NCCC[C@H](NC(=O)[C@@H]1CCCN1C(=O)C1(NC(=O)OCc2ccccc2)CCCCC1)C(=O)CF (Cbz-[Ac6c]-Pro-Arg-CH2F) | –
5.49 | CC(C)C[C@H](NC(=O)OCc1ccccc1)C(=O)N1CCC[C@H]1C(=O)N[C@@H](CCCNC(=N)N)C(=O)CF (Cbz-Leu-Pro-Arg-CH2F) | –
